Structure (SMILES)	melting point [°C]
CCc1cccc(N2CCN(CC[C@H]3CC[C@H](NC(=O)CCCOC)CC3)CC2)c1 [Example 560, N-(4-{2-[4-(3-Ethylphenyl)piperazin-1-yl]ethyl}cyclohexyl)-4-methoxybutanamide]	130
CC(=O)CCC(=O)N[C@H]1CC[C@H](CCN2CCN(c3cccc(C(F)(F)F)c3F)CC2)CC1 [Example 231, 4-Oxopentanoic acid (4-{2-[4-(2-fluoro-3-trifluoromethyl-phenyl)piperazin-1-yl]ethyl}cyclohexyl)amide]	178
N#CCCCC(=O)N[C@H]1CC[C@H](CCN2CCN(c3cc(Cl)c(Cl)cc3Cl)CC2)CC1 [Example 764, 4-Cyano-N-(4-{2-[4-(2,4,5-trichlorophenyl)piperazin-1-yl]ethyl}cyclohexyl)butanamide]	179
CCOc1ccccc1N1CCN(CC[C@H]2CC[C@H](NC(=O)CCCC#N)CC2)CC1 [Example 439, 4-Cyano-N-(4-{2-[4-(2-ethoxyphenyl)piperazin-1-yl]ethyl}cyclohexyl)butanamide]	137
Cc1ccc(N2CCN(CC[C@H]3CC[C@H](NC(=O)CC#N)CC3)CC2)cc1F [Example 339, 2-Cyano-N-(4-{2-[4-(3-fluoro-4-methylphenyl)piperazin-1-yl]ethyl}cyclohexyl)acetamide]	208
N#CCCCC(=O)N[C@H]1CC[C@@H](CCN2CCN(c3cccc(C(F)(F)F)c3F)CC2)CC1 [Example 366, 4-Cyano-N-(4-{2-[4-(2-fluoro-3-trifluoromethylphenyl)piperazin-1-yl]ethyl}cyclohexyl)butanamide]	95
COc1ccc(C)c(N2CCN(CCC3CCN(CC(C)=O)CC3)CC2)c1.Cl.Cl	283
N#CCC(=O)N[C@H]1CC[C@H](CCN2CCN(c3cc(F)c(F)cc3F)CC2)CC1 [Example 472, 2-Cyano-N-(4-{2-[4-(2,4,5-trifluorophenyl)piperazin-1-yl]ethyl}cyclohexyl)acetamide]	188
O=C(CC(F)(F)F)N[C@H]1CC[C@H](CCN2CCN(c3cccc4ncccc34)CC2)CC1 [Example 320, 3,3,3-Trifluoro-N-{4-[2-(4-quinolin-5-ylpiperazin-1-yl)ethyl]cyclohexyl}propanami-de]	207
O=C(N[C@H]1CC[C@H](CCN2CCN(c3cccc(-c4ncco4)c3)CC2)CC1)C1=COCC1 [Example 532, 4,5-Dihydrofuran-3-carboxylic acid(4-{2-[4-(3-oxazol-2-ylphenyl)piperazin-1-yl]ethyl}cyclohexyl) amide]	202
COc1ccc(C(F)(F)F)cc1N1CCN(CC[C@H]2CC[C@H](NC(=O)CCCC#N)CC2)CC1 [Example 405, 4-Cyano-N-(4-{2-[4-(2-methoxy-5-trifluoromethylphenyl)piperazin-1-yl]ethyl}cyclohexyl)butanamide]	136
N#CCCCC(=O)N[C@H]1CC[C@H](CCN2CCN(c3ccc(Cl)cc3F)CC2)CC1 [Example 471, N-(4-{2-[4-(4-Chloro-2-fluorophenyl)piperazin-1-yl]ethyl}cyclohexyl)-4-cyanobutanamide]	171
COCCCC(=O)N[C@H]1CC[C@H](CCN2CCN(c3cc(F)c(F)c(F)c3F)CC2)CC1 [Example 93, 4-Methoxy-N-(4-{2-[4-(2,3,4,5-tetrafluorophenyl)piperazin-1-yl]ethyl}cyclohexyl)butyramide]	201
N#CCC(=O)N[C@H]1CC[C@H](CCN2CCN(c3ccc(F)cc3)CC2)CC1 [Example 241, 2-Cyano-N-(4-{2-[4-(4-fluoro-phenyl)piperazin-1-yl]ethyl}cyclohexyl)acetamide]	209
CC(=O)CN1CCC(CCN2CCN(c3ccc4c(c3)OCCO4)CC2)CC1 [Example 711, 1-(4-{2-[4-(2,3-Dihydrobenzo[1,4]dioxin-6-yl)piperazin-1-yl]ethyl}piperidin-1-yl)propan-2-one]	126
Cl.N#CCCC(=O)N[C@H]1CC[C@H](CCN2CCN(c3cccc(C(F)(F)F)c3)CC2)CC1	230
COCCCC(=O)N[C@H]1CC[C@H](CCN2CCN(c3cccc(F)c3C)CC2)CC1 [Example 689, N-(4-{2-[4-(3-Fluoro-2-methylphenyl)piperazin-1-yl]ethyl}cyclohexyl)-4-methoxybutanamide]	172
COCc1cccc(N2CCN(CCC3CCN(CC(C)=O)CC3)CC2)c1.Cl.Cl	255
CCOCC(=O)N[C@H]1CC[C@H](CCN2CCN(c3cccc(C(F)(F)F)c3C#N)CC2)CC1 [Example 102, N-(4-{2-[4-(2-Cyano-3-trifluoromethylphenyl)piperazin-1-yl]ethyl}cyclohexyl)-2-ethoxyacetamide]	173
CC(=O)CN1CCC(CCN2CC=C(c3cccc(Cl)c3Cl)CC2)CC1.Cl.Cl	296 to 297
N#CCCCC(=O)N[C@H]1CC[C@H](CCN2CCN(c3cc(C#N)cc(C(F)(F)F)c3)CC2)CC1 [Example 432, 4-Cyano-N-(4-{2-[4-(3-cyano-5-trifluoromethylphenyl)piperazin-1-yl]ethyl}cyclohexyl)butanamide]	174
N#CCC(=O)N[C@H]1CC[C@H](CCN2CCN(c3cc(F)cc(Cl)c3)CC2)CC1 [Example 181, N-(4-{2-[4-(3-Chloro-5-fluorophenyl)piperazin-1-yl]ethyl}cyclohexyl)-2-cyanoacetamide]	181 to 183
N#CCCCC(=O)N[C@H]1CC[C@H](CCN2CCN(c3cccc4ncccc34)CC2)CC1 [Example 321, 4-Cyano-N-{4-[2-(4-quinolin-5-ylpiperazin-1-yl)ethyl]cyclohexyl}butanamide]	155
Cl.N#CCC(=O)N[C@H]1CC[C@H](CCN2CCN(c3ccccc3)CC2)CC1	243
COc1c(Cl)cccc1N1CCN(CC[C@H]2CC[C@H](NC(=O)CCCC#N)CC2)CC1 [Example 449, N-(4-{2-[4-(3-Chloro-2-methoxyphenyl)piperazin-1-yl]ethyl}cyclohexyl)-4-cyanobutanamide]	118
CCOCC(=O)N1CCC(CCN2CCN(c3cccc4c3CCC4)CC2)CC1.Cl	270
CC(=O)CN1CCC(CCN2CCN(c3cc(C(F)(F)F)ccc3Cl)CC2)CC1.Cl.Cl	299
Cc1cc(Cl)cc(N2CCN(CC[C@H]3CC[C@H](NC(=O)CC#N)CC3)CC2)c1 [Example 437, N-(4-{2-[4-(3-Chloro-5-methylphenyl)piperazin-1-yl]ethyl}cyclohexyl)-2-cyanoacetamide]	185
Cl.N#CCC(=O)N[C@H]1CC[C@@H](CCN2CCN(c3ccccc3F)CC2)CC1	153

Next, values leading:

melting point [°C]	Structure (SMILES)
148	COCCCC(=O)N[C@H]1CC[C@H](CCN2CCN(c3cccc(C)c3)CC2)CC1 [Example 675, 4-Methoxy-N-{4-[2-(4-m-tolylpiperazin-1-yl)ethyl]cyclohexyl}butanamide]
208	O=C(N[C@H]1CC[C@H](CCN2CCN(c3cc(F)c(F)c(F)c3)CC2)CC1)C1=CCCC1 [Example 463, Cyclopent-1-enecarboxylic acid (4-{2-[4-(3,4,5-trifluorophenyl)piperazin-1-yl]ethyl}cyclohexyl) amide]
168	Cc1ccc(N2CCN(CC[C@H]3CC[C@H](NC(=O)CCCC#N)CC3)CC2)cc1Cl [Example 381, N-(4-{2-[4-(3-Chloro-4-methylphenyl)piperazin-1-yl]ethyl}cyclohexyl)-4-cyanobutanamide]
170	COc1ccc(C)c(N2CCN(CC[C@H]3CC[C@H](NC(=O)CCCC#N)CC3)CC2)c1 [Example 391, 4-Cyano-N-(4-{2-[4-(5-methoxy-2-methylphenyl)piperazin-1-yl]ethyl}cyclohexyl)butanamide]
187	COc1ccccc1N1CCN(CC[C@H]2CC[C@H](NC(=O)CC#N)CC2)CC1 [Example 124, 2-Cyano-N-(4-{2-[4-(2-methoxyphenyl)piperazin-1-yl]ethyl}cyclohexyl)acetamide]
175	COCCCC(=O)N[C@H]1CC[C@H](CCN2CCN(c3ccccc3F)CC2)CC1 [Example 76, N-(4-{2-[4-(2-Fluorophenyl)-piperazin-1-yl]ethyl}cyclohexyl)-4-methoxybutanamide]
207	Cc1cccc(N2CCN(CC[C@H]3CC[C@H](NC(=O)CC(F)(F)F)CC3)CC2)c1C#N [Example 115, N-(4-{2-[4-(2-Cyano-3-methylphenyl)piperazin-1-yl]ethyl}cyclohexyl)-3,3,3-trifluoropropanamide]
295	CC(=O)CN1CCC(CCN2CCN(c3cccc4ncccc34)CC2)CC1.Cl.Cl
180	COc1ccc(Cl)cc1N1CCN(CC[C@H]2CC[C@H](NC(=O)CC#N)CC2)CC1 [Example 176, N-(4-{2-[4-(5-Chloro-2-methoxyphenyl)piperazin-1-yl]ethyl}cyclohexyl)-2-cyanoacetamide]
158 to 159	O=C(C[C@H]1CC[C@H](CCN2CCN(c3ccccc3F)CC2)CC1)NCC(F)(F)F [Example 304, 2-(4-{2-[4-(2-Fluorophenyl)piperazin-1-yl]ethyl}cyclohexyl)-N-(2,2,2-trifluoroethyl)acetamide]
128	O=C(N[C@H]1CC[C@H](CCN2CCN(c3cccc(C(F)(F)F)c3)CC2)CC1)C(F)F [Example 44, 2,2-Difluoro-N-(4-{2-[4-(3-trifluoromethylphenyl)piperazin-1-yl]ethyl}cyclohexyl)acetamide]
174	Cc1ccc(F)c(N2CCN(CC[C@H]3CC[C@H](NC(=O)C4=CCCC4)CC3)CC2)c1 [Example 534, Cyclopent-1-enecarboxylic acid (4-{2-[4-(2-fluoro-5-methylphenyl)piperazin-1-yl]ethyl}cyclohexyl) amide]
270	CCCC(=O)CN1CCC(CCN2CCN(c3cccc4c3CCC4)CC2)CC1.Cl.Cl
163	N#CCCCC(=O)N[C@H]1CC[C@H](CCN2CCN(c3cc(F)cc(C(F)(F)F)c3)CC2)CC1 [Example 665, 4-Cyano-N-(4-{2-[4-(3-fluoro-5-trifluoromethylphenyl)piperazin-1-yl]ethyl}cyclohexyl)butanamide]
240	CCCOCC(=O)N[C@H]1CC[C@H](CCN2CCN(c3cc(C(F)(F)F)ccc3F)CC2)CC1.Cl

Source: US8802678B2, “Carbonylated (aza) cyclohexanes as dopamine D3 receptor ligands” (Bioprojet, priority 2006, dated 2014)
